Reference: US8895585B2, “Nicotinamide derivative or salt thereof” (FUJIFILM Corporation, priority 2010, dated 2014)

Molecular target: T1, glutathione S-transferase (GST)-fused full-length human Syk protein (Homo sapiens, UniProt P43405)
T1 construct: (GST)-fused full-length human Syk protein; GST (glutathione S-transferase); purchased Carna Biosciences
Assay: Syk enzyme assay
Assay type: biochemical
Conditions: Syk enzyme assay, Test Example 1; read-out: IC50 of Syk-inhibitory activity
Protocol: A glutathione S-transferase (GST)-fused full-length human Syk protein (Carna Biosciences), which had been generated using a Baculovirus expression system, was used in the Syk enzyme assay.
15 μl of a reaction solution (1.2 ng Syk, 20 mM HEPES, 10 mM MgCl2, 50 mM NaCl, 2 mM DTT, 0.05% BSA, pH 7.0) containing a Syk protein and a predetermined concentration of a test compound was shaken for 2 minutes, and it was then left at rest at room temperature for 13 minutes. Thereafter, 5 μl of Biotin-EDPDYEWPSA-NH2 (final concentration: 0.4 μM) serving as a substrate peptide and 5 μl of ATP (final concentration: 27 μM) were added to the reaction solution, and the obtained mixture was then shaken for 2 minutes. The reaction solution was further left at rest at room temperature for 40 minutes, so as to carry out an enzyme reaction.
Thereafter, 50 μl of a reaction termination solution [5 μg/ml Streptavidin, 0.18 μg/ml PT66-K, 30 mM HEPES (pH 7.0), 150 mM KF, 75 mM EDTA, 0.15% BSA, 0.075% Tween20], which contained Streptavidin-Xlent (Cisbio) and Mab PT66-K (Cisbio), was added to the reaction solution to terminate the enzyme reaction. At the same time, the reaction solution was left at rest at room temperature for 1 hour, so as to carry out an antigen-antibody reaction. Thereafter, using EnVision (PerkinElmer), the time-resolved fluorescence was measured at 615 nm and 665 nm, so that the phosphorylation of the substrate peptide was measured.
In addition, the following are standards for evaluating IC50 of Syk-inhibitory activity used in Table 21. • A: Up to 10 nM • B: 10 to 50 nM • C: 50 to 100 nM • D: 100 to 1000 nM The set of numbers (XYZ-xyz) given in each Example number column indicates the corresponding Example number (Example XYZ-xyz) in Table 21.

**Q.** NC(=O)c1cc(F)c(NC2CCCCC2N)nc1Nc1ccnc(-c2cccc3cnccc23)c1 (centres unmarked) [Example 002-180] was tested. Which IC50 did it give?
**A.** The IC50 was 50 to 100 nM.

**Q.** For NC(=O)c1cc(F)c(N[C@@H]2CCCC[C@@H]2N)nc1Nc1cnc(-n2cccn2)c(-n2ccnn2)c1 [Example 006-450, 2-((6-(1H-pyrazol-1-yl)-5-(1H-1,2,3-triazol-1-yl)pyridin-3-yl)amino)-6-(((1R,2S)-2-aminocyclohexyl)amino)-5-fluoronicotinamide], which IC50 is on record?
**A.** Its IC50 is 100 to 1000 nM.

**Q.** Which IC50 does the source give for NC(=O)c1cc(F)c(N[C@@H]2CCCC[C@@H]2N)nc1Nc1cccc2c1CNC2=O [Example 004-009] here?
**A.** Its IC50 is < 10 nM.

**Q.** NC(=O)c1cc(F)c(NC2CCCCC2N)nc1Nc1ccc2cc(-n3cccn3)cnc2c1 (centres unmarked) [Example 002-143] was tested. Which IC50 did it give?
**A.** Its IC50 is < 10 nM.

**Q.** How did the IC50 turn out when CC[C@H](N)[C@@H](CC)Nc1nc(Nc2cnc(OC)c(-n3nccn3)c2)c(C(N)=O)cc1F [Example 006-391, 6-(((3R,4S)-4-aminohexan-3-yl)amino)-5-fluoro-2-((6-methoxy-5-(2H-1,2,3-triazol-2-yl)pyridin-3-yl)amino)nicotinamide] was run?
**A.** Its IC50 is 10 to 50 nM.

**Q.** Which IC50 does the source give for CNC(=O)c1cc2c(Nc3nc(NC4CCCCC4N)c(F)cc3C(N)=O)ccnc2n1C (centres unmarked) [Example 029-008] here?
**A.** Its IC50 is 10 to 50 nM.

**Q.** With NC(=O)c1cc(F)c(NC2CCCCC2N)nc1Nc1cncc(NC(=O)c2ccc3c(c2)OCO3)c1 (centres unmarked) [Example 027-034] as the compound, how does the IC50 read?
**A.** Its IC50 is 10 to 50 nM.

**Q.** How did the IC50 turn out when NC(=O)c1cc(F)c(N[C@@H]2CCCC[C@@H]2N)nc1Nc1cnc(-n2cccn2)c(-n2cccn2)c1 [Example 006-448, 6-(((1R,2S)-2-aminocyclohexyl)amino)-2-((5,6-di(1H-pyrazol-1-yl)pyridin-3-yl)amino)-5-fluoronicotinamide] was run?
**A.** Its IC50 is 50 to 100 nM.

**Q.** With CCOc1ccccc1C(=O)Nc1cncc(Nc2nc(NC3CCCCC3N)c(F)cc2C(N)=O)c1 (centres unmarked) [Example 027-025] as the compound, how does the IC50 read?
**A.** Its IC50 is 10 to 50 nM.

**Q.** With NC(=O)c1cc(F)c(N[C@@H]2CCCC[C@@H]2N)nc1Nc1cncc(-c2ccccc2OCC2CC2)c1 [Example 004-184] as the compound, how does the IC50 read?
**A.** The IC50 was 10 to 50 nM.

**Q.** With NC(=O)c1cc(F)c(N[C@@H]2CCCC[C@@H]2N)nc1Nc1ccn2cnnc2c1 [Example 004-212] as the compound, how does the IC50 read?
**A.** Its IC50 is 10 to 50 nM.

**Q.** NC(=O)c1cc(F)c(NC2CCCC[C@@H]2N)nc1Nc1ccnc2c1ccn2CC(=O)N1CCCCC1 (some centres unmarked) [Example 029-005] was tested. Which IC50 did it give?
**A.** The IC50 was < 10 nM.

**Q.** CC(C)(C)[C@H](CN)Nc1nc(Nc2ccc3ncccc3c2)c(C(N)=O)cc1F [Example 006-162, (R)-6-((1-amino-3,3-dimethylbutan-2-yl)amino)-5-fluoro-2-(quinolin-6-ylamino)nicotinamide] was tested. Which IC50 did it give?
**A.** Its IC50 is 50 to 100 nM.

**Q.** For NC(=O)c1cc(F)c(NC2CCCCC2N)nc1Nc1cncc(NC(=O)c2ccc3sccc3c2)c1 (centres unmarked) [Example 027-038], which IC50 is on record?
**A.** Its IC50 is 10 to 50 nM.

**Q.** How did the IC50 turn out when CC(=O)Nc1cccc2cc(Nc3nc(N[C@H](Cc4ccccc4)C(N)=O)c(F)cc3C(N)=O)cnc12 [Example 004-047] was run?
**A.** The IC50 was 10 to 50 nM.

**Q.** Which IC50 does the source give for COCCn1cc2ccc(Nc3nc(NC4CCCCC4N)c(F)cc3C(N)=O)cc2n1 (centres unmarked) [Example 002-044] here?
**A.** The IC50 was 10 to 50 nM.

**Q.** How did the IC50 turn out when CC[C@@H](Nc1nc(Nc2ccc3c(cnn3CC(F)F)c2)c(C(N)=O)cc1F)[C@H](C)N [Example 006-423, 6-(((2S,3R)-2-aminopentan-3-yl)amino)-2-((1-(2,2-difluoroethyl)-1H-indazol-5-yl)amino)-5-fluoronicotinamide] was run?
**A.** Its IC50 is 10 to 50 nM.

**Q.** How did the IC50 turn out when NC(=O)c1cc(F)c(NC2CCCCC2N)nc1Nc1cccc2c1cnn2CCN1CCCC1 (centres unmarked) [Example 002-026] was run?
**A.** The IC50 was < 10 nM.

**Q.** For Cc1cc(C)cc(Nc2nc(NCCN)c(F)cc2C(N)=O)c1 [Example 008-002], which IC50 is on record?
**A.** The IC50 was 10 to 50 nM.

**Q.** With COCCOc1ncc(Nc2nc(N[C@@H]3CCCC[C@@H]3N)c(F)cc2C(N)=O)cc1-n1ccnn1 [Example 006-518, 6-(((1R,2S)-2-aminocyclohexyl)amino)-5-fluoro-2-((6-(2-methoxyethoxy)-5-(1H-1,2,3-triazol-1-yl)pyridin-3-yl)amino)nicotinamide] as the compound, how does the IC50 read?
**A.** The IC50 was 50 to 100 nM.

**Q.** With CCC[C@@H](Nc1nc(Nc2ccc(N3CCOCC3)nc2)c(C(N)=O)cc1F)[C@H](C)N [Example 006-246, 6-(((2S,3R)-2-aminohexan-3-yl)amino)-5-fluoro-2-((6-mopholinopyridin-3-yl)amino)nicotinamide] as the compound, how does the IC50 read?
**A.** The IC50 was 10 to 50 nM.

**Q.** With NC(=O)c1cc(F)c(N[C@@H]2CCCC[C@@H]2N)nc1Nc1cncc(-n2ccccc2=O)c1 (relative stereo) [Example 004-211, 6-(cis-2-aminocyclohexylamino)-5-fluoro-2-((2-oxo-2H-[1,3′-bipyridin]-5′-yl)amino)nicotinamide] as the compound, how does the IC50 read?
**A.** The IC50 was 100 to 1000 nM.

**Q.** NC(=O)c1cc(F)c(NC(Cc2ccc(F)cc2)C(N)=O)nc1Nc1ccc2ncccc2c1 (centres unmarked) [Example 012-033] was tested. Which IC50 did it give?
**A.** The IC50 was 10 to 50 nM.

**Q.** NC[C@H](Nc1nc(Nc2ccc3cccnc3c2)c(C(N)=O)cc1F)c1ccccc1 [Example 006-134, (R)-6-((2-amino-1-phenylethyl)amino)-5-fluoro-2-(quinolin-7-ylamino)nicotinamide] was tested. Which IC50 did it give?
**A.** Its IC50 is 10 to 50 nM.

**Q.** NC(=O)c1cc(F)c(NC2CCCCC2N)nc1Nc1ccc(NCCO)nc1 (centres unmarked) [Example 002-075] was tested. Which IC50 did it give?
**A.** Its IC50 is 10 to 50 nM.

**Q.** Which IC50 does the source give for NC(=O)c1cc(F)c(NC2CCCCC2N)nc1Nc1cnc2oc3ccccc3c2c1 (centres unmarked) [Example 002-195] here?
**A.** Its IC50 is < 10 nM.

**Q.** NCC(CCC(F)(F)F)Nc1nc(Nc2cncc(-c3ccccc3)c2)c(C(N)=O)cc1F (centres unmarked) [Example 006-305, 6-((1-amino-5,5,5-trifluoropentan-2-yl)amino)-5-fluoro-2-((5-phenylpyridin-3-yl)amino)nicotinamide] was tested. Which IC50 did it give?
**A.** The IC50 was 10 to 50 nM.

**Q.** Which IC50 does the source give for CCCOc1ccc2cc(Nc3nc(NC4CCCCC4N)c(F)cc3C(N)=O)ccc2n1 (centres unmarked) [Example 002-104] here?
**A.** The IC50 was < 10 nM.

**Q.** NC(=O)c1cc(F)c(N[C@@H]2CCCC[C@@H]2N)nc1Nc1ccnc(COCc2ccccc2)c1 (relative stereo) [Example 004-192, 6-(cis-2-aminocyclohexylamino)-2-((2-((benzyloxy)methyl)pyridin-4-yl)amino)-5-fluoronicotinamide] was tested. Which IC50 did it give?
**A.** The IC50 was 50 to 100 nM.

**Q.** Which IC50 does the source give for Cc1cccc(-c2cncc(Nc3nc(N[C@@H]4CCCC[C@@H]4N)c(F)cc3C(N)=O)c2)c1 (relative stereo) [Example 004-099, 6-(cis-2-aminocyclohexylamino)-5-fluoro-2-((5-(3-methylphenyl)pyridin-3-yl)amino)-nicotinamide] here?
**A.** The IC50 was < 10 nM.

**Q.** Which IC50 does the source give for NC(=O)c1cc(F)c(NC2CCCCC2N)nc1Nc1ccc(N2CCCC2=O)nc1 (centres unmarked) [Example 002-156] here?
**A.** The IC50 was 50 to 100 nM.

**Q.** With COc1cc(Nc2nc(N[C@H]3CCCC[C@H]3N)c(F)cc2C(N)=O)cc(OC)n1 [Example 006-115, 6-((1S,2R)-2-aminocyclohexylamino)-2-((2,6-dimethoxypyridin-4-yl)amino)-5-fluoronicotinamide] as the compound, how does the IC50 read?
**A.** Its IC50 is 100 to 1000 nM.

**Q.** With NC(=O)c1cc(F)c(N[C@H](c2ccccc2)[C@@H](N)c2ccccc2)nc1Nc1ccc2cccnc2c1 (racemic) [Example 006-141, 6-(((1R,2S)-2-amino-1,2-diphenylethyl)amino)-5-fluoro-2-(quinolin-7-ylamino)nicotinamide 6-(((1S,2R)-2-amino-1,2-diphenylethyl)amino)-5-fluoro-2-(quinolin-7-ylamino)nicotinamide] as the compound, how does the IC50 read?
**A.** Its IC50 is 100 to 1000 nM.

**Q.** How did the IC50 turn out when CCOC(=O)c1c(F)cc2c(Nc3nc(N[C@@H]4CCCC[C@@H]4N)c(F)cc3C(N)=O)cccn12 [Example 004-115] was run?
**A.** The IC50 was < 10 nM.

Same assay, conditions: read-out: Syk-inhibitory activity (IC50)

**Q.** Which IC50 does the source give for CCNc1nc(Nc2ccc3cn[nH]c3c2)c(C(N)=O)cc1F [Example 6-18, 6-(ethylamino)-5-fluoro-2-((1H-indazol-6-yl)amino)nicotinamide] here?
**A.** The IC50 was ≤ 1000 nM.
